Measured values taken from patent US20070129252A1, “2-Halo-6-alkylphenyl-substituted spirocyclic tetramic acid derivatives” (BAYER CROPSCIENCE AKTIENGESELLSCHAFT, priority 2003, published 2007).

Key:
Assay type in all cases: in vivo
Myzus persicae [1] = assay: Myzus test (dip treatment); details: cabbage leaves
Protocol: Myzus Test (Dip Treatment)
(§1) To produce a suitable preparation of active compound, 1 part by weight of active compound is mixed with the stated amounts of solvent and emulsifier, and the concentrate is diluted with emulsifier-containing water to the desired concentration.
Cabbage leaves (Brassica oleracea), which are heavily infested by the green peach aphid Myzus persicae), are treated by being dipped into the preparation of active compound of the desired concentration.
(§2) After the desired period of time, the kill in % is determined. 100% means that all aphids have been killed; 0% means that none of the aphids have been killed.

Meloidogyne incognita = assay: Meloidogyne test; details: 20 ppm; formation of galls on lettuce roots
Protocol: To produce a suitable preparation of active compound, 1 part by weight of active compound is mixed with the stated amounts of solvent and emulsifier, and the concentrate is diluted with water to the desired concentration.
Vessels are filled with sand, solution of active compound, Meloidogyne incognita egg/larvae suspension and lettuce seeds. The lettuce seeds germinate and the plants develop. On the roots, galls develop.
After the desired period of time, the nematicidal action is determined in % by the formation of galls. 100% means that no galls have been found; 0% means that the number of galls on the treated plants corresponds to that of the untreated control.

Myzus persicae [2] = assay: Myzus test (spray treatment); details: 100 g/ha, Chinese cabbage discs
Protocol: Myzus Test (Spray Treatment)
as §1
Discs of Chinese cabbage (Brassica pekinensis), which are infested by all stages of the green peach aphid (Myzus persicae), are sprayed with a preparation of active compound of the desired concentration.
After the desired period of time, the effect in % is determined. 100% means that all aphids have been killed; 0% means that none of the aphids have been killed.

Avena sativa [3] = assay: Herbicidal post-emergence action (Example M); details: greenhouse, 320 g of a.i./ha, about 3 weeks
Protocol: (§3) Herbicidal Post-Emergence Action
(§4) Seeds of monocotyledonous and dicotyledonous weed and crop plants are placed into sandy loam in wood fibre pots, covered with soil and cultivated in a greenhouse under good growth conditions. 2-3 weeks after sowing, the test plants are treated at the one-leaf stage. The test compounds, formulated as wettable powders (WP), are, in various dosages with a water application rate of 600 l/ha (converted), with 0.2% of wetting agent added, sprayed onto the green parts of the plants. After the test plants were kept in the greenhouse under optimum growth conditions for about 3 weeks, the effect of the preparations is rated visually in comparison to untreated controls (herbicidal effect in percent (%): 100% effect=the plants have died, 0% effect=like control plants).

Lolium [4] = assay: Herbicidal post-emergence action (Example M); details: greenhouse, 320 g of a.i./ha, about 3 weeks
Protocol: as §3, §4

Setaria [5] = assay: Herbicidal post-emergence action (Example M); details: greenhouse, 320 g of a.i./ha, about 3 weeks
Protocol: as §3, §4

Avena sativa [6] = assay: Herbicidal pre-emergence action (Example L); details: greenhouse, 320 g of a.i./ha, 3 weeks
Text: (§5) Herbicidal Pre-Emergence Action
(§6) Seeds of monocotyledonous and dicotyledonous weed and crop plants are placed into sandy loam in wood fibre pots and covered with soil. The test compounds, formulated in the form of wettable powders (WP), are then, in various dosages as aqueous suspension with a water application rate of 600 l/ha (converted), with 0.2% of wetting agent added, applied to the surface of the covering soil.
(§7) After the treatment, the pots are placed in a greenhouse and kept under good growth conditions for the test plants. The visual assessment of the emergence damage on the test plants is carried out after a trial period of 3 weeks by comparison with untreated controls (herbicidal effect in percent (%): 100% effect=the plants have died, 0% effect=like control plants).

Lolium [7] = assay: Herbicidal pre-emergence action (Example L); details: greenhouse, 320 g of a.i./ha, 3 weeks
Text: as §5, §6, §7

Setaria [8] = assay: Herbicidal pre-emergence action (Example L); details: greenhouse, 320 g of a.i./ha, 3 weeks
Text: as §5, §6, §7

Sinapis = assay: Herbicidal pre-emergence action (Example L); details: greenhouse, 320 g of a.i./ha, 3 weeks
Text: as §5, §6, §7

Stellaria = assay: Herbicidal pre-emergence action (Example L); details: greenhouse, 320 g of a.i./ha, 3 weeks
Text: as §5, §6, §7

Tetranychus urticae = assay: Tetranychus test (OP-resistant/dip treatment); details: 100 ppm; dip treatment; bean plants (Table H)
Protocol: Tetranychus Test (OP-Resistant/Dip Treatment)
as §1
Bean plants (Phaseolus vulgaris), which are heavily infested by all stages of the greenhouse red spider mite (Tetranychus urticae), are dipped into a preparation of active compound of the desired concentration.
After the desired period of time, the activity in % is determined. 100% means that all spider mites have been killed; 0% means that none of the spider mites have been killed.

Aphis gossypii = Aphis gossypii test; details: 500 ppm; dip treatment; cotton leaves
Protocol: as §1
Cotton leaves (Gossypium hirsutum), which are heavily infested by the cotton aphid (Aphis gossypii), are treated by being dipped into the preparation of active compound of the desired concentration.
as §2

Phaedon cochleariae = assay: Phaedon larvae test (dip treatment); details: 500 ppm, cabbage leaves
Protocol: Phaedon Larvae Test (Dip Treatment) [[[…]]] To produce a suitable preparation of active compound, 1 part by weight of active compound is mixed with the stated amounts of solvent and emulsifier, and the concentrate is diluted with emulsifier-containing water to the desired concentration. Cabbage leaves (Brassica oleracea) are treated by being dipped into the preparation of active compound of the desired concentration and are populated with larvae of the mustard beetle (Phaedon cochleariae) while the leaves are still moist.

Echinochloa [9] = assay: Post-emergence test (Example J); details: greenhouse, 60 g of a.i./ha, after three weeks
Protocol: (§8) To produce a suitable preparation of active compound, 1 part by weight of active compound is mixed with the stated amount of solvent, the stated amount of emulsifier is added and the concentrate is diluted with water to the desired concentration.
(§9) Test plants of a height of 5-15 cm are sprayed with the preparation of active compound such that the particular amounts of active compound desired are applied per unit area. The concentration of the spray liquor is chosen such that the particular amounts of active compound desired are applied in 1000 l of water/ha.
(§10) After three weeks, the degree of damage in the plants is rated in % damage in comparison to the development of the untreated control.
(§11) 0%=no effect (like untreated control)

Lolium [10] = assay: Post-emergence test (Example J); details: greenhouse, 60 g of a.i./ha, after three weeks
Protocol: as §8, §9, §10, §11

sugarbeets [11] = assay: Post-emergence test (Example J); details: greenhouse, 60 g of a.i./ha, after three weeks
Protocol: as §8, §9, §10, §11

Echinochloa [12] = assay: Pre-emergence test (Example K); details: greenhouse, 30 g of a.i./ha, after three weeks
Protocol: as §8
(§12) Seeds of the test plants are sown in normal soil. After about 24 hours, the soil is sprayed with the preparation of active compound such that the particular amounts of active compound desired are applied per unit area. The concentration of the spray liquor is chosen such that the particular amounts of active compound desired are applied in 1000 l of water/ha.
(§13) After three weeks, the degree of damage to the plants is rated in % damage in comparison to the development of the untreated control.
as §11

Lolium [13] = assay: Pre-emergence test (Example K); details: greenhouse, 30 g of a.i./ha, after three weeks
Protocol: as §8, §12, §13, §11

Setaria [14] = assay: Pre-emergence test (Example K); details: greenhouse, 30 g of a.i./ha, after three weeks
Protocol: as §8, §12, §13, §11

sugarbeets [15] = assay: Pre-emergence test (Example K); details: greenhouse, 30 g of a.i./ha, after three weeks
Protocol: as §8, §12, §13, §11

summer barley = assay: Herbicidal post-emergence action, vessel trials with cereals in the greenhouse, use of safeners (Example N); details: without safener
Protocol: as §3
(§14) Seeds of monocotyledonous and dicotyledonous weed and crop plants are placed into sandy loam in wood fibre pots or in plastic pots, covered with soil and cultivated in a greenhouse, during the vegetation period also outdoors outside of the greenhouse, under good growth conditions. 2-3 weeks after sowing, the test plants are treated at the one- to three-leaf stage. The test compounds, formulated as wettable powders (WP) or emulsifiable concentrates (EC) are, in various dosages with a water application rate of 300 l/ha (converted), with wetting agent (0.2 to 0.3%) added, sprayed onto the plants and the surface of the soil. 3-4 weeks after the treatment of the test plants, the effect of the preparations is rated visually in comparison to untreated controls (herbicidal effect in percent (%): 100% effect=the plants have died, 0% effect=like control plants).
(§15) If it is additionally to be tested as to whether safeners can improve the plant compatibility of test substances in the case of crop plants, the following options are used for applying the safener: • seeds of the crop plants are, before sowing, dressed with the safener substance (the amount of safener is stated in percent, based on the weight of the seed) • before the application of the test substances, the crop plants are sprayed with the safener at a certain application rate per hectare (usually 1 day before the application of the test substances) • the safener is applied together with the test substance as a tank mix (the amount of safener is stated in g/ha or as a ratio, based on the herbicide).
(§16) By comparing the effect of the test substances on crop plants without or with safener treatment, it is possible to assess the effect of the safener substance.
(§17) Vessel Trials with Cereals in the Greenhouse
(§18) Mefenpyr applied 1 day prior to the application of herbicide

summer wheat = assay: as above; details: without safener
Protocol: as §3, §14, §15, §16, §17, §18

SMILES: CCc1cc(C)cc(Br)c1C1=C(O)C2(CCOCC2)NC1=O [Example I-a-1]
- Kill rate in % after 6d (Myzus persicae [1]; 100 ppm): 75%
- Effect in % after 14d (Meloidogyne incognita): 80%
- Kill rate in % after 5d (Myzus persicae [2]): 100%
- herbicidal effect in percent, Avena sativa (Avena sativa [3]): 100%
- herbicidal effect in percent, Lolium (Lolium [4]): 100%
- herbicidal effect in percent, Setaria (Setaria [5]): 80%
- herbicidal effect in percent, Avena sativa (Avena sativa [6]): 70%
- herbicidal effect in percent, Lolium (Lolium [7]): 80%
- herbicidal effect in percent, Setaria (Setaria [8]): 90%
- herbicidal effect in percent, Sinapis (Sinapis): 70%
- herbicidal effect in percent, Stellaria (Stellaria): 100%

SMILES: CCc1cc(C)cc(Cl)c1C1=C(O)C2(CCC(OC)CC2)NC1=O (single isomer, unassigned) [Example I-a-4]
- Kill rate in % after 6d (Myzus persicae [1]; 4 ppm): 95%
- Kill rate in % after 7d (Tetranychus urticae): 99%
- Kill rate in % after 6d (Aphis gossypii): 80%
- Kill rate in % after 7d (Phaedon cochleariae): 100%
- % damage, Echinochloa (Echinochloa [9]): 100%
- % damage, Lolium (Lolium [10]): 100%
- % damage, sugarbeets (sugarbeets [11]): 0%
- % damage, Echinochloa (Echinochloa [12]): 80%
- % damage, Lolium (Lolium [13]): 100%
- % damage, Setaria (Setaria [14]): 100%
- % damage, sugarbeets (sugarbeets [15]): 0%
- summer barley observed (%) (summer barley; 12.5 g of a.i./ha): 10%
- summer barley observed (%) (summer barley; 25 g of a.i./ha): 30%
- summer barley observed (%) (summer barley; 50 g of a.i./ha): 97%
- summer wheat observed (%) (summer wheat; 12.5 g of a.i./ha): 50%
- summer wheat observed (%) (summer wheat; 25 g of a.i./ha): 98%
